The target of series [1] is T1, human recombinant opioid receptor mu (MOP) (Homo sapiens, UniProt P35372).
T1 construct: expressed in transfected cells; host or cells: CHO cells, membranes
Description: Receptor binding on CHO membranes, [3H]-Diprenorphine.

Series [2] concerns the target T2, human recombinant NOP receptor (Homo sapiens, UniProt P41146).
T2 construct: expressed in transfected cells; host or cells: CHO cells (CHOhNOP), membranes
The series is described as follows: Stimulation of GTP?S binding on CHOhNOP membranes. It is filed as biochemical. As to conditions: for Stimulation upon binding GTP?S, Agonist pEC50: Table 1, membrane of CHOhNOP cells.

The test system of another series is mouse vas deferens. Description: Inhibition of the twitch induced by electrical stimulation of mouse vas deferens. It counts as cell-based.
Series [3] is described as follows: Metabolic stability in mouse brain homogenate. It is filed as in vitro ADME. The following applies: male, Swiss, pH 7.4, mouse brain homogenate, 37° C., mean±standard deviation, read-out: T½ Brain. The procedure: (§1) Plasma and brain tissue samples were obtained from male Swiss mice (Morini, Reggio Emilia, Italy, 25-30 g). The animal, sacrificed by ether anesthesia, was perfused with physiological heparin solution injected through a needle placed in the left ventricle. Blood was then withdrawn and was centrifuged at 14000×g for 2 minutes at room temperature. After separation from the pellet, the plasma was aliquoted and stocked at −80° C. After blood withdrawal, the animal was perfused further with a physiological solution for 2 minutes before brain removal. The brain tissue was homogenized in 5 vol. (w/v) of Tris/HCl (50 mM, pH 7.4, 0° C.) with a ultra-Turrax (Janke Kunkel, Staufen, FRG) 3 times for 15 seconds each. The supernatant obtained by centrifugation (3000×g for 15 min at 4° C.) was decanted and then stocked at −80° C.
(§2) The protein content of the preparations, determined by the Bradford method, as described in Anal. Biochem., 72, 248-254, 1976, was approximately 8 μg/μl for the brain homogenate and 17 μg/μl for the plasma
(§3) An aliquot of 100 μl solution of each peptide (3 mg/500 μl Tris) was incubated (at a final concentration of […]) with brain homogenate or plasma (450 μl) in a total volume of 1 ml, containing Tris/HCl 50 mM pH 7.4 buffer. Incubation of the aliquots was carried out at 37° C. for various periods up to 240 min. At different incubation times, an aliquot of the solution (100 μl) was removed and the degradation was blocked by addition of 4.5% TFA solution (200 μl). After centrifugation (3000 rpm for 15 minutes) an aliquot (100 μl) of supernatant was injected into RP-HPLC. HPLC analysis was performed in a Kromasil 100-5C18 column (4.6×250 mm) using a Beckman System Gold chromatography system equipped with a variable wave length UV detector.
(§4) The experimental conditions for elution included a gradient analysis with water (solvent A) and acetonitrile (solvent B), both containing 0.1% TFA, at a flow rate of 0.7 ml/min. The following protocol was used for gradient analysis, selected on the basis of the physico-chemical characteristics of the analyte: linear gradient from 5% to 40% B in 20 minutes; linear gradient from 40% to 60% B in 5 minutes; linear gradient from 60% to 5% B in 5 minutes. The eluate was monitored at 220 nm. The half life (T1/2) was obtained by linear regression with the least square method, diagramming the peak areas of each derivative as a function of the incubation times, using at least five points for each analysis.

Series [4] can be described thus: Metabolic stability in mouse plasma. As to conditions: for half-life at 6 μg/μl: male, Swiss, mouse, plasma, pH 7.4, mouse plasma, 37° C., mean±standard deviation, read-out: T½ Plasma; for Plasma T½ compared to N/OFQ: mouse plasma. It counts as in vitro ADME. The procedure: as §1, §2, §3, §4
Series [5] addresses T3, human recombinant opioid receptor delta (DOP) (Homo sapiens, UniProt P41143).
T3 construct: expressed in transfected cells; host or cells: CHO cells, membranes
Description: Receptor binding on CHO membranes, [3H]-Diprenorphine.

Series [6] relates to mice. The series is described as follows: Food intake in fed mice. It is filed as in vivo, mouse. An excerpt:
2) measurement of food intake in fed animals, as described by Rizzi et al. (National Congress of the Italian Society of Neuroscience and joint Italian-Swedish Neuroscience Meetings, Ischia (Napoli) 1-4 Oct. 2005);

For series [7], the system named is vas deferens of knockout mice for the NOP receptor (NOP−/−). The series is described as follows: Electrically stimulated vas deferens from NOP receptor knockout mice. It is filed as cell-based, mouse.
Series [8] concerns the target T2, human recombinant NOP receptor. The series is described as follows: Receptor binding, displacement of tritiated N/OFQ on CHOhNOP membranes.
The test system of series [9] is mice. The series is described as follows: Spontaneous locomotor activity in mice. It is filed as in vivo, mouse. The protocol: (§5) Control animals received one i.c.v. injection of saline (2 μl/mouse). Each point represents the mean±s.e.m. of at least 4 experiments.
3) assay for measurement of spontaneous locomotor activity, as described by Rizzi et al., (Naunyn Schmiedebergs Arch Pharmacol 363, 161-165, 2001.

The test system of series [10] is mice. The series is described as follows: Tail withdrawal assay in mice. It counts as in vivo, mouse. The protocol: as §5
1) tail withdrawal assay, according to the experimental protocols described by Calò et al., (Br J Pharmacol 125, 373-378, 1998) and Rizzi et al. (Clin Pharmacol 18, 56, 2004);

In series [11] the target is T4, human recombinant opioid receptor kappa (KOP) (Homo sapiens, UniProt P41145).
T4 construct: expressed in transfected cells; host or cells: CHO cells, membranes
T4 sequence (P41145 whole entry): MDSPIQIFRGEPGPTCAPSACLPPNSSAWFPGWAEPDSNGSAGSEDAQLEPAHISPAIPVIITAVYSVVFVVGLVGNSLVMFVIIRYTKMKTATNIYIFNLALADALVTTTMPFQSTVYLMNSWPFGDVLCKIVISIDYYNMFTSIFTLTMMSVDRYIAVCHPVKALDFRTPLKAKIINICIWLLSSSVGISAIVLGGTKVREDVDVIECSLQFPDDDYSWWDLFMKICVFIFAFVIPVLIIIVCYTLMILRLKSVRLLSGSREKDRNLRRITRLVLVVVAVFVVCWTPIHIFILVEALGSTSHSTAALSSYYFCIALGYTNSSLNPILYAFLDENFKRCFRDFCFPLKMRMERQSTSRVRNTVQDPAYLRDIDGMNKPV
The series is described as follows: Receptor binding on CHO membranes, [3H]-Diprenorphine. The following applies: Table 3, CHO cells.

The target in series [12] is T5, human recombinant NOP receptors expressed in HEK293 cells (Homo sapiens, UniProt P41146).
T5 construct: host or cells: HEK293 cells
T5 sequence (P41146 whole entry): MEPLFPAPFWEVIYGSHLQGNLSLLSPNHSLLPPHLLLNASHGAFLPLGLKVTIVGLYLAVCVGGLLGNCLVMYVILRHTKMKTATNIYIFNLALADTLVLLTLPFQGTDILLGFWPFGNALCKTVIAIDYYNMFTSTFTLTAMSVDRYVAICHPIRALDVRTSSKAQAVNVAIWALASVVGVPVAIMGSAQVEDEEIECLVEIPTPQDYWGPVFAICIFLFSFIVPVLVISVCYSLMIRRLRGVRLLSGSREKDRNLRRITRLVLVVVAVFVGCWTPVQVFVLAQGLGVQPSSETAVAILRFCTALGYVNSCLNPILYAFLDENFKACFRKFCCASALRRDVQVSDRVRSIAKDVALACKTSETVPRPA
The following applies: Okada et al. 2000; cited from earlier work.

The mark [13] stands for this setting: compared with N/OFQ maximal effect.
Setting [14] is: Table 3, CHO cells, [3H]-Diprenorphine.
The mark [15] stands for this setting: Table 2, wild type (NOP+/+) mice.

Consider three compounds from patent publication US8227414B2 ([…].R.L., priority 2005, dated 2012).

Bounds are passed on as bounds.

T2 sequence (P41146 whole entry): as above
T3 sequence (P41143 whole entry): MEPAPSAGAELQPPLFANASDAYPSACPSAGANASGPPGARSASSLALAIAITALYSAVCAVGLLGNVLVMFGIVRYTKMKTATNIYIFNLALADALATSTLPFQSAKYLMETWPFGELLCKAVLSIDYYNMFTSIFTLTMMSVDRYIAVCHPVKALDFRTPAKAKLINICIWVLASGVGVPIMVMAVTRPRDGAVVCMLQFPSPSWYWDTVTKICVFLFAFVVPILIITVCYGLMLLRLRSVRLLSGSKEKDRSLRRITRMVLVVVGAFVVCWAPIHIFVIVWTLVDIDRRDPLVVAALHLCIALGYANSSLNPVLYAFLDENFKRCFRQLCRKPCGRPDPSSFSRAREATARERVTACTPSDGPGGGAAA
T1 sequence (P35372 whole entry): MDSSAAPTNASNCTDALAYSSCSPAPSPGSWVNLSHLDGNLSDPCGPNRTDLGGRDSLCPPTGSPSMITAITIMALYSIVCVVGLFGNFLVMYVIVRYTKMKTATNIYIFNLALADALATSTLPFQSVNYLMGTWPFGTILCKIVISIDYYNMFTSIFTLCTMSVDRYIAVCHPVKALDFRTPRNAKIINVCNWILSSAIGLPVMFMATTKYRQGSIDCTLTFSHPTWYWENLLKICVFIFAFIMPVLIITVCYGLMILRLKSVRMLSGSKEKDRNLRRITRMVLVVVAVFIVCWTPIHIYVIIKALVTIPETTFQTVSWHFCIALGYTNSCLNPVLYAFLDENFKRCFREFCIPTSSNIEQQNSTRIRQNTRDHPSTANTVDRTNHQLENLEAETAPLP
Description for mouse vas deferens: The compounds were tested in vitro on Hamster oocytes membranes expressing the human recombinant NOP receptor (CHOhNoP) (receptor binding experiments and GTP?S binding stimulation experiments) and on the mouse vas deferens after electrical stimulation.

Consider `C[C@H](NC(=O)[C@H](CO)NC(=O)[C@H](CCCCN)NC(=O)[C@H](CCCNC(=N)N)NC(=O)C(C)(C)NC(=O)CNC(=O)[C@@H](NC(=O)[C@H](Cc1ccccc1)NC(=O)CNC(=O)CNC(=O)CNCc1ccccc1)[C@@H](C)O)C(=O)N[C@@H](CCCNC(=N)N)C(=O)N[C@@H](CCCCN)C(=O)N[C@@H](CCCNC(=N)N)C(=O)N[C@@H](CCCCN)C(=O)N[C@@H](CC(N)=O)C(=O)N[C@@H](CCC(N)=O)C(N)=O` [UFP-111, [Nphe^1,Aib^7,Arg^14,Lys^15]N/OFQ-NH2], for which, in [1], the inhibition constant Ki (commonly the dissociation constant of the complex between target and ligand, obtained from inhibition or displacement) is above 10 µM. In addition, in [2], the Kb was 0.00209 µM and the “Stimulation upon binding GTP?S, Agonist pEC50” value is “Inactive”. Further, the “Functional behaviour in GTP?S binding” value in series [2] (setting [13]) is listed as “competitive antagonist”. Moreover, the “Inhibition of the twitch induced by electric stimulation, Agonist pEC50” value in the series with mouse vas deferens (Table 1) was “Inactive”. In the series with mouse vas deferens (Table 1, against N/OFQ), the “Inhibition of the twitch induced by electric stimulation, Antagonist pA2” value came out at 7.46. Moreover, in the series with mouse vas deferens (setting [13]), the “Functional behaviour in mouse vas deferens” value is “competitive antagonist”. The half-life at 6 μg/μl in [3] is 0.183 ± 0.0317 h. For the same compound, in series [4], the half-life at 6 μg/μl was determined as 2.28 ± 0.0667 h and the “Plasma T½ compared to N/OFQ” value was “about twice as long”. Also, the Ki in series [5] was above 10 µM.
Take `C[C@H](NC(=O)[C@H](CO)NC(=O)[C@H](CCCCN)NC(=O)[C@H](CCCNC(=N)N)NC(=O)C(C)(C)NC(=O)CNC(=O)[C@@H](NC(=O)[C@H](Cc1ccc(F)cc1)NC(=O)CNC(=O)CNC(=O)[C@@H](N)Cc1ccccc1)[C@@H](C)O)C(=O)N[C@@H](CCCNC(=N)N)C(=O)N[C@@H](CCCCN)C(=O)N[C@@H](CCCNC(=N)N)C(=O)N[C@@H](CCCCN)C(=O)N[C@@H](CC(N)=O)C(=O)N[C@@H](CCC(N)=O)C(N)=O` [UFP-112, [(pF)Phe^4,Aib^7,Arg^14,Lys^15]N/OFQ-NH2]: the “pKi MOP” value in series [1] (setting [14]) stood at 7.13. For the same compound, in series [2], the “Stimulation upon binding GTP?S, Agonist pEC50” value came to 10.55. In addition, the Emax (commonly the greatest response seen or fitted, relative to the assay's reference) in series [2] (read-out: Stimulation upon binding GTP?S, Agonist Emax) amounted to 118 ± 9%. Also, in the series with mouse vas deferens (Table 1), the “Inhibition of the twitch induced by electric stimulation, Agonist Emax” value was −85 ± 2% and the “Inhibition of the twitch induced by electric stimulation, Agonist pEC50” value is 9.48. Also, in the series on mouse vas deferens (setting [15]), the “Emax NOP+/+” value is 93 ± 3% and the “pEC50 NOP+/+” value turned out to be 8.94. The “Kinetics of action and reversibility of the effects after washing” value in the series with mouse vas deferens (compared with N/OFQ, equi-effective concentrations) is “much slower”. Also, the “Increase in potency compared to the reference sequence” value with mouse vas deferens (mouse vas deferens) is on record as “more than 100 fold”. Besides, the “Action in the mouse vas deferens in presence of naloxone” value in the series with mouse vas deferens (naloxone present) is “not modified”. In addition, the “Hyperphagic effects in NOP−/− mice” value in the series on mice [6] (NOP−/− mice) is listed as “absent”. Besides, the “Potency relative to N/OFQ in food intake” value in the series with mice [6] (fed mice) worked out at 100 fold. Further, in the series on mice [6] (fed mice, equi-effective doses), the “Effect on food intake” value is “significant increase”. Also, in [7], the “Inhibitory effect on the contraction induced by electrical stimulation in NOP−/− vas deferens” value is reported as “disappeared”. Also, the “pEC50 NOP−/−” value in series [7] (Table 2) is reported as below 6. Moreover, the “Receptor binding PKi” value in series [8] (Table 1, membrane of CHOhNOP cells, tritiated N/OFQ) worked out at 10.55. Further, the “pKi NOP” value in [8] (Table 3, CHO cells, [3H]N/OFQ) turned out to be 10.55. Further, the half-life at 6 μg/μl in series [3] is 0.188 ± 0.0233 h. For the same compound, the “Time after which locomotor effect ended” value with mice [9] (0.1 nmol i.c.v.) is “about 6 h”. Besides, the “Effect on spontaneous locomotor activity” value with mice [9] (i.c.v., N/OFQ 10 nmol, UFP-112 0.1 nmol) is reported as “inhibited the locomotor activity”. For the same compound, the “Effect in tail withdrawal assay, i.c.v.” value in the series with mice [10] (0.001-0.1 nmol, intracerebroventricular) is on record as “pronociceptive effects”. Also, the “Effect in tail withdrawal assay, i.t.” value with mice [10] (0.001-0.1 nmol, intrathecal) was “antinociceptive effects”. For the same compound, in the series on mice [10] (NOP−/− mice), the “Tail withdrawal effects in NOP−/− mice” value is “absent”. The “Duration of action in tail withdrawal test” value in the series with mice [10] (equi-effective doses) is above 120 min. Moreover, the “Potency in vivo relative to N/OFQ” value with mice [10] (stated for each in vivo assay (tail withdrawal, food intake, locomotor activity)) is “about 100 fold”. In addition, the “pKi KOP” value in series [11] is given as 8.36. Moreover, in series [4], the half-life at 6 μg/μl amounted to 2.78 ± 0.15 h and the “Plasma T½ compared to N/OFQ” value was “almost three-fold longer”. Also, the “pKi DOP” value in series [5] (setting [14]) was found to be 6.37.
Turning to [Arg^14,Lys^15]N/OFQ, the “Potency relative to N/OFQ” value in series [12] is listed as 17 fold.
